Experimental data taken from patent US10654834B2 (Venenum Biodesign, LLC, priority 2016, dated 2020).
Read-outs that look alike come from different tables or passages of the source.

Assays:
GLP-1 [1] = assay: GLP-1 levels after 6 weeks of dosing in DIO mice; format: in vivo, mouse; details: 30 mg/kg + sitagliptin 10 mg/kg BID, 6 h after final dose, versus sitagliptin alone
Excerpt: In the next series of studies (Examples 93-99), Male DIO mice were received at 12 weeks of age (from Taconic), and were single-housed at the testing facility and acclimated for at least 2 weeks. The mice were provided a high fat diet [Research Diet D12492 (60% Fat kcal)] while in the testing facility. Before the study initiation, the animals were randomized into 5 experimental groups by body weight. The vehicle group contained only 0.5% carboxymethylcellulose (medium viscosity)+0.25% Tween-80. The second group contained 10 mg/kg of the DPP-IV inhibitor Sitagliptin while the third group contained 30 mg/kg Compound 268. The fourth group contained the combination of 10 mg/kg Sitagliptin and 30 mg/kg Compound 268. The fifth group was the positive control for weight loss, Rimonabant. All mice were dosed BID at approximately 6:00 am and again at approximately 4:00 pm. The positive control rimonabant was administered at a dose of 10 mg/kg in the afternoon and the morning dosing was vehicle (no compound). […]
Compounds of the present invention were dosed for multiple weeks and were evaluated to determine if they produce sustained GLP-1 levels.
In this example, the protocol from Example 93 was utilized. […] The active form of GLP-1 [GLP-1 (7-36) amide] was analyzed using Meso Scale Discovery System according to the manufacturer's directions (item number K150HYC). […]

GLP-1 [2] = assay: Plasma GLP-1 time course after a single oral dose in DIO mice; format: in vivo, mouse; details: 30 mg/kg + sitagliptin versus sitagliptin alone, 6-24 h
Procedure: (§1) In this study, we evaluated if the observed GLP-1 elevation (induced by the compounds of the present invention) may be associated with gallbladder filling. We treated mice with Compound 268 and monitored the bile weight (a measure that indicated gallbladder filling) to determine if the compound retained more bile in the gallbladder as compared to the control mice (i.e., vehicle alone). A time course study was performed to measure weight of the bile aspirated from the gallbladder after oral administration of Compound 268 (30 mg/kg) in high fat diet induced obese (DIO) mice. In this study, GLP-1 levels were also measured at each time point (FIG. 9).
(§2) Approximately 12 week old DIO male mice (obtained from Taconic) were acclimated in the testing facility for over two weeks. The mice were provided a high fat diet [Research Diet D12492 (60% Fat kcal)] while in the testing facility. […] The blood samples were distributed as follows: 150-200 μL of blood were placed in an EDTA K^2+ tube containing 5 μL of 40 mg/mL aprotinin (Sigma A1153) and 1 μL of 10 mM sitagliptin (Sigma 58576) to be used for GLP-1 measurements; the remaining blood (≥250 μL) was placed in an EDTA K^2+ tube and plasma was processed for analytical chemistry and analyzed by LCMS/MS method as described in Example 81. […]

[3] = Plasma concentration of compound in DIO mice over 24 hours; format: in vivo, mouse; details: 30 mg/kg p.o. + sitagliptin 10 mg/kg, 6, 12, 18, 24 h
Procedure: Plasma Concentration of Compound in Mice
In these studies, the plasma concentration of the compounds of the present invention was measured in DIO mice as well as lean C57BL/6N mice.
In the first study, (data represented in FIG. 10), plasma concentration levels were measured over a 24 hour time period in DIO mice. Following the treatment with the compound, the blood was collected via cardiac puncture at 6, 12, 18, and 24 hours. The blood samples (>250 μL) were placed in an EDTA K^2+ tube and plasma was processed for analytical chemistry and analyzed by LCMS/MS method as described in Example 81. FIG. 10 depicts the plasma concentrations of Compound 268 after oral administration at 30 mg/kg in combination with 10° mg/kg sitagliptin. The plasma concentrations of Compound 268 were below 10 nM at every tested time points.

[4] = Bile weight after 6 weeks of dosing in DIO mice; format: in vivo, mouse; details: about 6 h after final dose
Excerpt: In the next series of studies (Examples 93-99), Male DIO mice were received at 12 weeks of age (from Taconic), and were single-housed at the testing facility and acclimated for at least 2 weeks. The mice were provided a high fat diet [Research Diet D12492 (60% Fat kcal)] while in the testing facility. Before the study initiation, the animals were randomized into 5 experimental groups by body weight. The vehicle group contained only 0.5% carboxymethylcellulose (medium viscosity)+0.25% Tween-80. The second group contained 10 mg/kg of the DPP-IV inhibitor Sitagliptin while the third group contained 30 mg/kg Compound 268. The fourth group contained the combination of 10 mg/kg Sitagliptin and 30 mg/kg Compound 268. The fifth group was the positive control for weight loss, Rimonabant. All mice were dosed BID at approximately 6:00 am and again at approximately 4:00 pm. The positive control rimonabant was administered at a dose of 10 mg/kg in the afternoon and the morning dosing was vehicle (no compound).
No Bile Weight Increase after 6 Weeks of Dosing Compounds
Compounds of the present invention were dosed for multiple weeks and were evaluated to determine if they lead to an increase in bile weight.
In this example, the protocol from Example 93 was utilized. […]

[5] = Bile weight after a single oral administration in DIO mice; format: in vivo, mouse; details: 30 mg/kg + sitagliptin 10 mg/kg p.o., 6, 12, 18, 24 h
Procedure: Bile Weight after a Single Oral Administration of the Compound
as §1, §2

[6] = Portal vein versus systemic pharmacokinetics in hepatic portal vein cannulated CD(SD) rats; format: in vivo; details: male, rat, 10 mg/kg oral; for AUC(0-t): read-out: AUC (0→7 h)
Procedure: Low Level of Compounds is Attributed to Low Intestinal Absorption
In this study, we determined if low plasma level of the compounds of the present invention is due to low absorption in the gut, or due to the first pass effect (i.e., absorption followed by a rapid degradation of compounds by liver). Hepatic portal vein cannulated male CD(SD) rats obtained from Charles River Laboratory were utilized. In brief, Compound 268 was administered orally at 10 mg/kg, and the blood was obtained simultaneously from the portal vein and systemic circulation (retro-orbital sinus) at predose, 0.25, 0.5, 1, 2, and 4 hours post-dose, in EDTA coated tubes. The samples were processed into plasma and quantification of compound levels in the plasma was accomplished by means of LC-MS/MS analysis as described in Example 81.

[7] = plasma (portal vein blood), Portal Vein bleed
[8] = plasma (systemic blood), Peripheral bleed (retro-orbital sinus)

For `N#Cc1ccc(CCNC(=O)[C@@H]2CCN2c2cc(N3CCC(CCNC(=O)NCCC(=O)O)CC3)nc(C(F)(F)F)n2)cc1` [Compound 268, (S)-3-(3-(2-(1-(6-(2-((4-cyanophenethyl)carbamoyl)azetidin-1-yl)-2-(trifluoromethyl)pyrimidin-4-yl)piperidin-4-yl)ethyl)ureido)propanoic acid], the “plasma GLP-1 level after 6 weeks of dosing” value (GLP-1 [1]) was “significantly increased level of GLP-1”, the “plasma GLP-1 levels” value (GLP-1 [2]) was “significant elevation of GLP-1 levels” and the “plasma concentration of compound” value [3] was “below 10 nM”. The “bile weight / gallbladder size after 6 weeks of dosing” value [4] was “does not show an increase in size”, the bile weight [5] was “did not cause any significant increase in bile weight” and the Cmax [6, 7] was 15.7 ± 6.7 ng/mL. The Tmax [6, 7] was 15 to 60 min, the AUC(0-t) [6, 7] was 49.1 ± 47.3 ng·h/mL and the Cmax [6, 8] was 43.9 ± 50.2 ng/mL. The Tmax [6, 8] was 15 to 60 min and the AUC(0-t) [6, 8] was 76.2 ± 84.3 ng·h/mL.
